Data on eight molecules can be found in US8933107B2, “Pesticide thiazolyloxy substituted phenylamidine derivatives” (Bayer Cropscience AG, priority 2005, dated 2015).

Series [1] concerns Puccinia recondita f. Sp. tritici. Kind of series: In vivo preventive test on Puccinia recondita f. Sp. tritici (wheat brown rust). The note with it: topical, 240 h, 1000 ppm of active ingredient, evaluated 10 days after inoculation, read-out: efficacy.
Series [2] relates to Erysiphe graminis f. sp. hordei. Put plainly: In vivo preventive test on Erysiphe gramini (powdery mildew on barley). The note with it: Blumeria graminis, 168 h, 1000 ppm of active ingredient, evaluated 7 days after inoculation, read-out: efficacy.
For a further series, the system named is Alternaria solani. Kind of series: In vivo protective test on Alternaria solani (leaf spot of tomato). The note with it: 168 h, 500 ppm of active ingredient, evaluated 7 days after inoculation, read-out: efficacy.
The subject of a further series is Podosphaera leucotricha. Kind of series: In vivo protective test on Podosphaera leucotricha (apples). The note with it: topical, 240 h, 100 ppm of active ingredient, evaluated 10 days after inoculation, read-out: efficacy.
In another series the test system is Sphaerotheca fuliginea. Kind of series: In vivo protective test on Sphaerotheca fuliginea (cucumbers). The note with it: Podosphaera fuliginea, 168 h, 100 ppm of active ingredient, evaluated 7 days after inoculation, read-out: efficacy.
Another series can be described thus: physchem. The note with it: reversed-phase HPLC column (C 18).
Another series relates to Heliotis virescens. Put plainly: Heliotis virescens test (HELIVI spray application). Format: in vivo. The note with it: soybean leaf sections, concentration and time not stated.

In general, chromatographic logP refers to lipophilicity estimated from chromatographic retention. A high value points to a more lipophilic compound. In the case of `Cc1cc(Oc2nc(Cl)c(Cl)s2)c(C)cc1/N=C/N(C)C(C)C` [Compound 1.3], the pest or weed control at 1000 ppm in series [1] and in series [2] was no less than 70% throughout. Further, the pest or weed control at 500 ppm in the series with Alternaria solani is no less than 70%. Besides, the pest or weed control at 100 ppm in the series with Podosphaera leucotricha and with Sphaerotheca fuliginea was no less than 70% each time. Also, the chromatographic logP in the series “physchem” is 2.18.
As for `CCN(C)/C=N/c1cc(C)c(Oc2nc(C(C)(C)C)c(Cl)s2)cc1C` [Compound 1.4], the pest or weed control at 1000 ppm in series [1] and in series [2] was no less than 70% each time. Besides, in the series on Alternaria solani, the pest or weed control at 500 ppm was no less than 70%. In addition, the pest or weed control at 100 ppm in the series with Podosphaera leucotricha and with Sphaerotheca fuliginea was no less than 70% each time. For the same molecule, the chromatographic logP in “physchem” worked out at 2.76.
As to `CCN(C)/C=N/c1cc(C)c(Oc2nc(C(F)(F)F)c(Cl)s2)cc1C` [Compound 1.5], the pest or weed control at 1000 ppm in series [1] and in series [2] was no less than 70% in each case. Moreover, the pest or weed control at 500 ppm with Alternaria solani was no less than 70%. Besides, the pest or weed control at 100 ppm with Podosphaera leucotricha and in the series on Sphaerotheca fuliginea was no less than 70% each time. The chromatographic logP in “physchem” is 2.15.
For `Cc1cc(Oc2nc(C(C)C)c(Cl)s2)c(C)cc1/N=C/N(C)C(C)C` [Compound 1.9], the pest or weed control at 1000 ppm in series [1] and in series [2] was no less than 70% throughout. Moreover, in the series with Alternaria solani, the pest or weed control at 500 ppm is no less than 70%. For the same molecule, the pest or weed control at 100 ppm in the series on Podosphaera leucotricha and with Sphaerotheca fuliginea was no less than 70% each time. Moreover, in “physchem”, the chromatographic logP came out at 2.57.
Regarding `Cc1cc(Oc2nc(Cl)c(Br)s2)c(C)cc1/N=C/N(C)C(C)C` [Compound 1.11], the pest or weed control at 1000 ppm in series [1] and in series [2] was no less than 70% each time. In addition, the pest or weed control at 100 ppm with Podosphaera leucotricha and in the series with Sphaerotheca fuliginea was no less than 70% throughout. Moreover, the “activity (mortality of eggs)” value in the series on Heliotis virescens is listed as “good activity”. In addition, the chromatographic logP in “physchem” is 2.22.
Turning to `CCN(C)/C=N/c1cc(C)c(Oc2nc(C)c(Cl)s2)cc1C` [Compound 1.12], the pest or weed control at 1000 ppm in series [1] and in series [2] was no less than 70% throughout. The pest or weed control at 500 ppm in the series with Alternaria solani is no less than 70%. Moreover, the pest or weed control at 100 ppm in the series with Podosphaera leucotricha and with Sphaerotheca fuliginea was no less than 70% each time. For the same molecule, the chromatographic logP in “physchem” was 1.98.
`Cc1cc(Oc2nc(Cl)c(C)s2)c(C)cc1/N=C/N(C)C(C)C` [Compound 1.23]: the pest or weed control at 1000 ppm in series [1] and in series [2] was no less than 70% in each case. For the same molecule, the “activity (mortality of eggs)” value with Heliotis virescens was “good activity”. In the series “physchem”, this molecule gave a chromatographic logP of 1.94.
With `CCN(C)/C=N/c1cc(C)c(Oc2nc(C(C)C)ns2)cc1C` [Compound 2.3], the pest or weed control at 1000 ppm in series [1] and in series [2] was no less than 70% each time. Moreover, the pest or weed control at 500 ppm in the series with Alternaria solani is no less than 70%. Also, the pest or weed control at 100 ppm in the series on Podosphaera leucotricha and in the series on Sphaerotheca fuliginea was no less than 70% throughout. Besides, the chromatographic logP in “physchem” was 1.74.
